Laboratory results published in ChEMBL document CHEMBL1135997, “Nonaromatic sulfonamide group as an ideal anchor for potent human carbonic anhydrase inhibitors: role of hydrogen-bonding networks in ligand binding and drug design” (J Med Chem, 2002).

Target: Carbonic anhydrase 2 (Homo sapiens, UniProt P00918)

| SMILES | Ki [nM] |
| --- | --- |
| C/C(=N/S(N)(=O)=O)c1ccc(N(C)C)cc1 | 20 |
| O=C(NS(=O)(=O)O)NS(=O)(=O)c1ccc(F)cc1 | 900 |
| NS(=O)(=O)NS(=O)(=O)c1cccc(C(=O)O)c1 | 10 |
| NS(=O)(=O)NC(=O)NS(=O)(=O)c1ccc(F)cc1 | 20 |
| NS(=O)(=O)NS(=O)(=O)c1c(F)c(F)c(F)c(F)c1F | 10 |
| O=S(=O)(O)NS(=O)(=O)c1c(F)c(F)c(F)c(F)c1F [(PENTAFLUOROPHENYL)SULFONYLSULFAMIC ACID] | 1200 |

Target: Carbonic anhydrase 1 (Homo sapiens, UniProt P00915)
Sequence (P00915 whole entry): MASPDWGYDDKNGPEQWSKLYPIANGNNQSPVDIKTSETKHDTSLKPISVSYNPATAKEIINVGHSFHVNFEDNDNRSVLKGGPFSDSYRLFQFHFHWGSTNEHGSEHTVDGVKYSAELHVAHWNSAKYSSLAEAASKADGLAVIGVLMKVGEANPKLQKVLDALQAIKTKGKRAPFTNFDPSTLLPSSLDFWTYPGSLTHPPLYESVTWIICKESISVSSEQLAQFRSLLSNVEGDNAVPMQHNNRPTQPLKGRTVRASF

| SMILES | Ki [nM] |
| --- | --- |
| O=C(NS(=O)(=O)O)NS(=O)(=O)c1ccc(F)cc1 | 80 |
| NS(=O)(=O)NS(=O)(=O)c1cccc(C(=O)O)c1 | 6 |
| NS(=O)(=O)NC(=O)NS(=O)(=O)c1ccc(F)cc1 | 6 |
| NS(=O)(=O)NS(=O)(=O)c1c(F)c(F)c(F)c(F)c1F | 3 |
| O=S(=O)(O)NS(=O)(=O)c1c(F)c(F)c(F)c(F)c1F [(PENTAFLUOROPHENYL)SULFONYLSULFAMIC ACID] | 50 |
